Experimental data from the NIST ThermoML archive (doi:10.1016/j.fluid.2016.02.031).

Assay: refractive index (Na D-line) (dimensionless); xn = mol fraction of the nth substance listed
Conditions: 100 kPa, Liquid, Standard Abbe refractometry

c1ccncc1 [pyridine] + CCC(C)=O
refractive index
Conditions | 288.15 K | 293.15 K | 298.15 K | 303.15 K | 308.15 K | 313.15 K | 318.15 K | 323.15 K | 328.15 K | 333.15 K
x1 = 0.1006 | 1.39357 | 1.39094 | 1.3883 | 1.38577 | 1.38311 | 1.38031 | 1.37775 | 1.37505 | 1.37234 | 1.36942
x1 = 0.2019 | 1.40586 | 1.40321 | 1.40056 | 1.39791 | 1.39527 | 1.3926 | 1.38992 | 1.38721 | 1.38453 | 1.38158
x1 = 0.3002 | 1.41813 | 1.41548 | 1.41282 | 1.41015 | 1.40751 | 1.40483 | 1.40214 | 1.39946 | 1.39666 | 1.39394
x1 = 0.4004 | 1.43104 | 1.42836 | 1.42568 | 1.42298 | 1.4203 | 1.4176 | 1.41489 | 1.41218 | 1.40942 | 1.40669
x1 = 0.4999 | 1.44407 | 1.44138 | 1.43868 | 1.43597 | 1.43325 | 1.43052 | 1.42779 | 1.42502 | 1.42228 | 1.41944
x1 = 0.597 | 1.45674 | 1.45401 | 1.4513 | 1.44857 | 1.44585 | 1.44311 | 1.44039 | 1.43765 | 1.43488 | 1.43213
x1 = 0.6998 | 1.4705 | 1.46776 | 1.46502 | 1.46227 | 1.45952 | 1.45678 | 1.45404 | 1.4513 | 1.44853 | 1.44586
x1 = 0.7945 | 1.48331 | 1.48055 | 1.47779 | 1.47504 | 1.47226 | 1.4695 | 1.46675 | 1.46402 | 1.46124 | 1.45866
x1 = 0.8962 | 1.49734 | 1.49455 | 1.49176 | 1.48899 | 1.4862 | 1.48343 | 1.48066 | 1.47793 | 1.47513 | 1.4726
x1 = 1 | 1.51204 | 1.50923 | 1.50636 | 1.50355 | 1.50076 | 1.49796 | 1.49522 | 1.49245 | 1.48962 | 1.48708

OCCCO [propan-1,3-diol] + CCC(C)=O
refractive index
Conditions | 288.15 K | 293.15 K | 298.15 K | 303.15 K | 308.15 K | 313.15 K | 318.15 K | 323.15 K | 328.15 K | 333.15 K
x1 = 0.1052 | 1.38816 | 1.3857 | 1.38318 | 1.38072 | 1.3783 | 1.37575 | 1.37324 | 1.3706 | 1.36798 | 1.36512
x1 = 0.2004 | 1.39411 | 1.39177 | 1.38937 | 1.38701 | 1.38469 | 1.38226 | 1.37988 | 1.37728 | 1.37479 | 1.37205
x1 = 0.3002 | 1.40019 | 1.39791 | 1.39561 | 1.39336 | 1.39119 | 1.38891 | 1.38656 | 1.38422 | 1.38186 | 1.3793
x1 = 0.4003 | 1.40646 | 1.4043 | 1.40216 | 1.40002 | 1.39791 | 1.39575 | 1.39357 | 1.39132 | 1.38903 | 1.38657
x1 = 0.4999 | 1.41261 | 1.41059 | 1.40857 | 1.40654 | 1.40452 | 1.40246 | 1.40036 | 1.39822 | 1.39608 | 1.3938
x1 = 0.5992 | 1.41868 | 1.4168 | 1.4149 | 1.41298 | 1.41104 | 1.4091 | 1.40712 | 1.40508 | 1.40306 | 1.40096
x1 = 0.6992 | 1.42474 | 1.42295 | 1.42116 | 1.41936 | 1.41754 | 1.41566 | 1.41382 | 1.41196 | 1.41006 | 1.4081
x1 = 0.7989 | 1.43046 | 1.42881 | 1.42712 | 1.42544 | 1.42374 | 1.42201 | 1.4203 | 1.41857 | 1.4168 | 1.41497
x1 = 0.8998 | 1.43588 | 1.43434 | 1.43277 | 1.43123 | 1.42967 | 1.42812 | 1.42654 | 1.42496 | 1.42335 | 1.42166
x1 = 1 | 1.44073 | 1.43932 | 1.43792 | 1.43654 | 1.43513 | 1.43375 | 1.43232 | 1.43087 | 1.42945 | 1.42803
